Test results from patent US8986733B2, “Materials and methods for nerve repair” (University of Florida Research Foundation, Inc., priority 2001, dated 2015).
“Also recorded” adds a separate entry of the source.

Tests used:
[1] = system: cells of cultured nerve segments; test: Dissociation culture (squash preparations) of nerve segments; format: cell-based, rat; conditions: nerve segments cultured 2 days with and without GM6001
[2] = system: MMP gelatinolytic activity; test: In situ zymography of cultured nerve explants; format: biochemical, rat; conditions: nerves cultured 2-day, 2% serum in presence of GM6001
Method: In situ zymography for nerve predegeneration experiments. Cryosections (10 μm) of unfixed normal and cultured nerves were mounted on slides and overlaid with reaction buffer (50 mM Tris-HCl, 150 mM NaCl, 5 mM CaCl2, 0.2 mM sodium azide, pH 7.6) containing 20 μg/ml of intramolecularly quenched, fluorescein-labeled gelatin substrate (MOLECULAR PROBES INC., Eugene, Oreg.) (Oh et al., 1999). In the control condition, the MMP inhibitor EDTA (30 mM) was included in the reaction buffer. After incubation for 24 h at 37° C., the sections were rinsed with PBS and fixed with 4% paraformaldehyde in phosphate buffer. The sections were rinsed with water and mounted using Citifluor. Fluorescein-gelatin peptides generated by gelatinolytic activity in the tissue sections were observed and photographed by epifluorescence microscopy.
The activity of MMPs is regulated by gene transcription, proenzyme activation and by the action of tissue inhibitors of metalloproteinases. The net gelatinolytic activity in nerve segments by in situ zymography was examined. Tissue sections were overlaid with quenched, fluorescein-gelatin, which is converted to fluorescent peptides by gelatinolytic activity within tissues. Constitutive gelatinolytic activity was detected in normal nerve mostly associated with Schwann cells aligned along the endoneurial basal lamina (as shown in FIGS. 17A and 17B). […]

[3] = system: embryonic chick DRG neurons; test: Cryoculture assay of nerve explant cultures (predegeneration); format: cell-based; conditions: 2-day, 2% serum culture with GM6001 (50 μM); 68% without
Text: Nerve explant culture for predegeneration experiments. Adult (180-200 gm) female SPRAGUE DAWLEY rats (HARLAN, Indianapolis, Ind.) were used as nerve donors and graft recipients. This project was reviewed and approved by the Institutional Animal Care and Use Committee. Donor rats were deeply anesthetized with isofluorane and decapitated. Sciatic nerves were exposed through a gluteal muscle-splitting incision and isolated free of underlying fascia. A 15-mm nerve segment was excised rostral to the bifurcation into common peroneal and tibial nerves. The segments were rinsed with sterile Ringer's solution and stabilized by pinning the ends to a thin plastic support. […]
Cryoculture bioassay. […] Neurite lengths were measured directly using IMAGE-PRO PLUS software (MEDIA CYBERNETICS, Silver Springs, Md.). At least 250 neurons with neurites greater than one cell body (˜15 μm) were scored for each condition in each experiment.
Freshly excised (cellular) rat sciatic nerve segments were cultured for up to 7 days in medium containing 0, 2 and 10% fetal bovine serum. Control (uncultured) and cultured nerves were cryosectioned and their neurite-promoting activity was assessed by cryoculture assay. […]

## CNC(=O)[C@H](Cc1c[nH]c2ccccc12)NC(=O)[C@@H](CC(=O)NO)CC(C)C [GM6001]
[1]
  cell viability (cell outgrowth): no loss of cell viability
[2]
  gelatinolytic activity in treated nerve explants: nearly undetectable; also recorded: markedly decreased
[3]
  increase in neurite length over control nerves for nerves cultured in presence of inhibitor: 14%
